According to PMC5618418, “Pharmacokinetics of Jaspine B and Enhancement of Intestinal Absorption of Jaspine B in the Presence of Bile Acid in Rats” (Marine Drugs, 2017):
Like-named read-outs stand apart in the source and are kept apart here.

Assays:
[1] = Metabolic stability in rat liver microsomes; type: in vitro ADME; details: for percentage remaining: 37 °C
Experimental: Jaspine B (1 μM) was reconstituted in 100 mM potassium phosphate buffer (pH 7.4) containing 0.25 mg of RLMs and was pre-incubated for 5 min at 37 °C. The reaction was initiated by adding an NADPH-generating system (1.3 mM β-NADP, 3.3 mM glucose-6-phosphate, 3.3 mM MgCl2, and 1.0 unit/mL glucose-6-phosphate dehydrogenase) and then incubated (final volume 100 μL) for 0, 15, 30, and 60 min at 37 °C in a shaking water bath. The reaction was stopped by placing the incubation tubes on ice and adding 200 μL of ice-cold acetonitrile containing 0.5 ng/mL of berberine. After vortexing for 10 min and centrifugation at 13,200 rpm for 5 min, 2 μL of the supernatant was injected directly into the LC-MS/MS system.

[2] = Tissue distribution after intravenous administration; type: in vivo; details: rat
Experimental: Jaspine B was dissolved in a vehicle containing DMSO: PEG400: saline (2:4:4, v/v/v) and IV-injected via the femoral vein at a dose of 10 mg/kg (vehicle volume, 1 mL/kg). Blood samples were collected from the abdominal artery and animals were euthanized at 0.5 h and 12 h after IV dosing. The blood, brain, liver, kidney, heart, and spleen were immediately excised, gently washed with ice-cold saline, and weighed. The tissue samples were homogenized with 9 volumes of saline. Aliquots of 50 μL of tissue homogenates and plasma were stored at −80 °C until the analysis.
Aliquots (50 μL) of plasma and tissue homogenates were added to 250 μL of acetonitrile containing 0.5 ng/mL of berberine. After vortexing for 10 min and centrifugation at 13,200 rpm for 5 min, an aliquot (2 μL) of the supernatant was injected directly into the LC-MS/MS system. For the analysis of plasma and tissue concentration, the standard curves with a range of 5–1000 ng/mL in the blank plasma and 10% bank tissue homogenates from brain, liver, kidney, heart, and spleen were prepared, and the concentrations of quality control (QC) samples of respective plasma and tissue homogenates were 25 and 750 ng/mL. The recovery of these spiked QC samples were in the range of 73.6–112.2% in all tissue homogenates. Intra- and inter-day precision and accuracy had coefficients of variance of less than 15%.

MDA-MB-231 = tested on: MDA-MB-231; parameters: method as in doi:10.5352/JLS.2016.26.12.1392; details: MDA-MB-231 human breast adenocarcinoma; cited from earlier work
HepG2 = tested on: HepG2; parameters: method as in doi:10.5352/JLS.2016.26.12.1392; details: HepG2 hepatoma; cited from earlier work
SK-OV3 = tested on: SK-OV3; parameters: method as in doi:10.5352/JLS.2016.26.12.1392; details: SK-OV3 ovarian; cited from earlier work
[3] = Sprague-Dawley (SD), brain, IV 10 mg/kg, read-out: T/P ratio, brain
[4] = Sprague-Dawley (SD), kidney, IV 10 mg/kg, read-out: T/P ratio, kidney
[5] = Sprague-Dawley (SD), liver, IV 10 mg/kg, read-out: T/P ratio, liver

- percentage remaining ([1]; 1 μM, rat liver microsomes, NADPH-generating system, 30 min): 59.8%
- percentage remaining ([1]; 1 μM, rat liver microsomes, NADPH-generating system, 60 min): 20.4%
- degraded ([1]; 1 h incubation with rat liver microsomes): 80%
- half-life at 1 μM ([1]; pH 7.4, 1 μM, rat liver microsomes, NADPH-generating system, read-out: degradation half-life (T1/2)): 24 min
- Kp at 0.5 h [2, 3]: 6.2
- Kp at 12 h [2, 3]: 1.8
- Kp at 0.5 h ([2]; Sprague-Dawley (SD), heart, IV 10 mg/kg, read-out: T/P ratio, heart): 14.4
- Kp at 0.5 h [2, 4]: 11.1
- Kp at 12 h [2, 4]: 4.7
- Kp at 0.5 h [2, 5]: 2.3
- Kp at 12 h [2, 5]: 1.2
- Kp at 0.5 h ([2]; Sprague-Dawley (SD), spleen, IV 10 mg/kg, read-out: T/P ratio, spleen): 18.5
- Kp at 12 h ([2]; Sprague-Dawley, brain, kidney, heart, spleen, 10 mg/kg, single IV administration, read-out: T/P ratios in brain, kidney, heart and spleen): 2 to 4
- Kp at 12 h ([2]; Sprague-Dawley, heart, IV 10 mg/kg, read-out: T/P ratio, heart): 3.2
- Kp at 12 h ([2]; Sprague-Dawley, spleen, IV 10 mg/kg, read-out: T/P ratio, spleen): 3.9
SMILES: CCCCCCCCCCCCCC[C@@H]1OC[C@H](N)[C@@H]1O [Jaspine B]
- IC50 (MDA-MB-231): > 100 µM
- IC50 (HepG2): 5.69 µM
- IC50 (SK-OV3): 4.78 µM
